Data: US20080069814A1, “Prevention of Thrombotic Disorders with Active Vitamin D Compounds or Mimics Thereof” (Novacea, Inc., priority 2005, published 2008)

How the values were obtained:
[1] = test system: venous thromboembolism (VTE); details: in vivo; cited from earlier work
thrombomodulin (“TM”) = details: in vitro, cultured monocytic cells including human peripheral monocytes; cited from earlier work
TF = details: in vitro, cultured monocytic cells including human peripheral monocytes; cited from earlier work
[2] = test system: women with metastatic breast cancer; details: cited from earlier work
[3] = test system: patients suffering from non-small-cell carcinoma of the lung; details: in vivo, sc; cited from earlier work
[4] = test system: patients with prostate cancer; test: Phase II clinical trial: Taxotere with or without calcitriol by HDPA, cardiovascular events; format: in vivo, human; details: 125 patients per arm; calcitriol three 15 μg capsules once a week on the day prior to Taxotere 75 mg/m^2
Text: Two hundred fifty patients with prostate cancer were enrolled at 58 centers in the United States and Canada. All patients in the study received chemotherapy treatment with Taxotere®, a drug in the taxoid class of chemotherapeutic agents. […] Oral dexamethasone is also given along with the Taxotere® to minimize certain side effects (allergic reactions and fluid retention) associated with Taxotere®.
In addition to Taxotere® and dexamethasone, half of the patients were randomly treated with calcitriol and the other half received a placebo. Calcitriol was administered as three capsules of 15 μg each once a week on the day prior to chemotherapy. […] The same Taxotere® doses of 75 mg/m^2 body surface area were administered to the patients receiving Taxotere® alone or Taxotere® in combination with calcitriol.

[5] = test system: patients receiving heparin; details: cited from earlier work

For “erythropoietin: erythropoiesis-stimulating agent”, the “Association with VTE” value [1] is given as “significantly associated with VTE”.

For `C=C1/C(=C\C=C2/CCC[C@]3(C)[C@@H]([C@H](C)CCCC(C)(C)O)CC[C@@H]23)C[C@@H](O)C[C@@H]1O` [calcitriol, 1α,25-dihydroxyvitamin D3], the “Expression of the anticoagulant thrombomodulin” value (thrombomodulin (“TM”)) is listed as “up-regulating the expression” and the “Expression of TF” value (TF) is listed as “down-regulating the expression”.

In the case of “epoetin alfa: erythropoiesis-stimulating agent, FDA-approved drug EPOGEN”, the “Kaplan-Meier estimated 12-month survival rate” value ([2]; in vivo) is given as 70%, the “Mortality at 4 months” value ([2]; weekly epoetin alfa for up to a year, interim results) is given as 8.7% and the “Rate of fatal thrombotic events” value ([2]; weekly epoetin alfa, interim results) is given as 1.1%. For the same compound, the “Median survival versus placebo” value [3] was “significant difference in the median survival in favor of patients on the placebo arm”.

For `CC(=O)O[C@@]12CO[C@@H]1C[C@H](O)[C@@]1(C)C(=O)[C@H](O)C3=C(C)[C@@H](OC(=O)[C@H](O)[C@@H](NC(=O)OC(C)(C)C)c4ccccc4)C[C@@](O)([C@@H](OC(=O)c4ccccc4)[C@H]21)C3(C)C` [Taxotere®], the “Patients who developed deep vein thrombosis or thrombophlebits” value [4] was “six of 125”, the “Patients who developed myocardial infractions or myocardial ischemia” value [4] was “two of 125” and the “Patients who had a stroke (cerebrovascular events)” value [4] was “two of 125”.

In the case of heparin, the “Patients with immunologic reaction resulting in heparin-induced thrombocytopenia (HIT), average” value [5] is listed as 5%.
